Assay in all cases: Bacterial growth minimal inhibitory concentration (broth microdilution, CLSI M7-A7)
Common to all, as to type: cell-based
(In broth dilution the organism is exposed to a series of concentrations in liquid medium.)

Test [1] concerns Acinetobacter baumannii T6474. The following applies: Acinetobacter baumannii, T6474, cation-adjusted Mueller-Hinton Broth, multiply-resistant strain (in particular quinolone-resistant). The method in brief: (§1)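 Testing used quinolone-resistant, multiply resistant isolates (S. aureus A798, A. baumannii T6474) plus quinolone-sensitive M. catarrhalis A894 and methicillin-sensitive S. aureus ATCC29213. MICs, in mg/L, came from CLSI M7-A7 microdilution in cation-adjusted Mueller-Hinton broth.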

For test [2], the system named is Enterococcus faecium A949. The conditions noted are these: Enterococcus faecium, A949, cation-adjusted Mueller-Hinton Broth, multiply-resistant strain (in particular quinolone-resistant), read-out: MIC for E. faecium A949. Summed up: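 Broth microdilution after CLSI M7-A7 in cation-adjusted Mueller-Hinton medium gave MIC values in mg/L.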
Test [3] relates to Staphylococcus aureus ATCC29213. The following applies: Staphylococcus aureus, ATCC29213, cation-adjusted Mueller-Hinton Broth, methicillin-sensitive and quinolone-sensitive strain, read-out: MIC for S. aureus ATCC29213. The method in brief: as §1
Test [4] has as its system Moraxella catarrhalis A894. The following applies: Moraxella catarrhalis, A894, cation-adjusted Mueller-Hinton Broth, quinolone-sensitive strain. Summed up:
as §1

In test [5] the test system is Staphylococcus aureus A798. The following applies: Staphylococcus aureus, A798, cation-adjusted Mueller-Hinton Broth, multiply-resistant strain (in particular quinolone-resistant), read-out: MIC for S. aureus A798. Summed up: as §1

In brackets after ≈: the same amount, converted by molar mass. Bounds are passed on as bounds.

By MIC is commonly meant the smallest concentration in the dilution series that meets the test's criterion for growth inhibition.

In the case of `COc1cc(-c2cccc(CNCC[C@H]3CN(c4ccc5c(n4)NC(=O)CO5)C(=O)O3)c2)ccc1C#N` [Example 75, 3-methoxy-3′-({2-[(S)-2-oxo-3-(3-oxo-3,4-dihydro-2H-pyrido[3,2-b][1,4]oxazin-6-yl)-oxazolidin-5-yl]-ethylamino}-methyl)-biphenyl-4-carbonitrile], the MIC in test [1] is 1 µg/mL (≈ 2 µM); in test [2], 8 µg/mL (≈ 16 µM); in test [3] it was 0.5 µg/mL (≈ 1 µM); in test [4], at most 0.063 µg/mL; in test [5], 0.5 µg/mL (≈ 1 µM).
For the compound `COc1ccnc(-c2cc(CNCC[C@H]3CN(c4ccc5c(n4)NC(=O)CO5)C(=O)O3)ccc2O)c1` [Example 101, 6-((S)-5-{2-[4-hydroxy-3-(4-methoxy-pyridin-2-yl)-benzylamino]-ethyl}-2-oxo-oxazolidin-3-yl)-4H-pyrido[3,2-b][1,4]oxazin-3-one], the MIC in test [1] was 0.125 µg/mL (≈ 0.254 µM); in test [2], 2 µg/mL (≈ 4.07 µM); in test [3], at most 0.016 µg/mL; in test [4], at most 0.016 µg/mL; in test [5], at most 0.016 µg/mL.
Regarding `COc1cccc(-c2cc(CNCC[C@@H]3CN(c4ccc5c(c4)NC(=O)CS5)C(=O)O3)ccn2)c1` [Example 39, 6-[(R)-5-(2-{[2-(3-methoxy-phenyl)-pyridin-4-ylmethyl]-amino}-ethyl)-2-oxo-oxazolidin-3-yl]-4H-benzo[1,4]thiazin-3-one], the MIC stood at 2 µg/mL (≈ 4.08 µM) in test [1]; 4 µg/mL (≈ 8.15 µM) in test [2]; 1 µg/mL (≈ 2.04 µM) in test [3]; 0.125 µg/mL (≈ 0.255 µM) in test [4]; 1 µg/mL (≈ 2.04 µM) in test [5].
In the case of `COc1cccc(-c2cccc(CNCC[C@H]3CN(c4ccc5c(n4)NC(=O)CO5)C(=O)O3)c2)c1C#N` [Example 86, 3-methoxy-3′-({2-[(S)-2-oxo-3-(3-oxo-3,4-dihydro-2H-pyrido[3,2-b][1,4]oxazin-6-yl)-oxazolidin-5-yl]-ethylamino}-methyl)-biphenyl-2-carbonitrile], the MIC was 8 µg/mL (≈ 16 µM) in test [1]; 4 µg/mL (≈ 8.01 µM) in test [2]; 0.125 µg/mL (≈ 0.25 µM) in test [3]; at most 0.016 µg/mL in test [4]; 0.5 µg/mL (≈ 1 µM) in test [5].
As for `COc1ccc(-c2cccc(CNCC[C@H]3CN(c4ccc5c(n4)NC(=O)CO5)C(=O)O3)c2)nn1` [Example 79, 6-((S)-5-{2-[3-(6-methoxy-pyridazin-3-yl)-benzylamino]-ethyl}-2-oxo-oxazolidin-3-yl)-4H-pyrido[3,2-b][1,4]oxazin-3-one], the MIC in test [1] was 0.5 µg/mL (≈ 1.05 µM); in test [2] it was 8 µg/mL (≈ 16.8 µM); in test [3] it was 0.5 µg/mL (≈ 1.05 µM); in test [4], 0.063 µg/mL (≈ 0.132 µM); in test [5], 0.5 µg/mL (≈ 1.05 µM).
With `COCCOc1cccc(-c2cccc(CNCC[C@H]3CN(c4ccc5c(n4)NC(=O)CO5)C(=O)O3)c2)c1` [Example 54, 6-[(S)-5-(2-{[3′-(2-methoxy-ethoxy)-biphenyl-3-ylmethyl]-amino}-ethyl)-2-oxo-oxazolidin-3-yl]-4H-pyrido[3,2-b][1,4]oxazin-3-one], the MIC in test [1] worked out at 8 µg/mL (≈ 15.4 µM); in test [2], 16 µg/mL (≈ 30.9 µM); in test [3] it was 2 µg/mL (≈ 3.86 µM); in test [4], 0.125 µg/mL (≈ 0.241 µM); in test [5] it was 2 µg/mL (≈ 3.86 µM).
For `COc1cccc(-c2cccc(CNCCc3nn(-c4ccc5c(n4)NC(=O)CO5)c(=O)o3)c2)n1` [Example 51, 6-(5-{2-[3-(6-methoxy-pyridin-2-yl)-benzylamino]-ethyl}-2-oxo-[1,3,4]oxadiazol-3-yl)-4H-pyrido[3,2-b][1,4]oxazin-3-one], the MIC in test [1] is 0.5 µg/mL (≈ 1.05 µM); in test [2] it was 2 µg/mL (≈ 4.22 µM); in test [3], 0.5 µg/mL (≈ 1.05 µM); in test [4], at most 0.016 µg/mL; in test [5], 1 µg/mL (≈ 2.11 µM).
For the compound `CCOc1cccc(-c2cccc(CNCC[C@H]3CN(c4ccc5c(n4)NC(=O)CO5)C(=O)O3)c2)c1` [Example 70, 6-((S)-5-{2-[(3′-ethoxy-biphenyl-3-ylmethyl)-amino]-ethyl}-2-oxo-oxazolidin-3-yl)-4H-pyrido[3,2-b][1,4]oxazin-3-one], the MIC in test [1] was determined as 2 µg/mL (≈ 4.09 µM); in test [2], 8 µg/mL (≈ 16.4 µM); in test [3], 1 µg/mL (≈ 2.05 µM); in test [4], 0.063 µg/mL (≈ 0.129 µM); in test [5] it was 0.5 µg/mL (≈ 1.02 µM).
`N#Cc1cccc(-c2cccc(CNCCc3nn(-c4ccc5c(n4)NC(=O)CO5)c(=O)o3)c2)c1` [Example 56, 3′-({2-[5-oxo-4-(3-oxo-3,4-dihydro-2H-pyrido[3,2-b][1,4]oxazin-6-yl)-4,5-dihydro-[1,3,4]oxadiazol-2-yl]-ethylamino}-methyl)-biphenyl-3-carbonitrile]: the MIC in test [1] was 1 µg/mL (≈ 2.13 µM); in test [2] it was 4 µg/mL (≈ 8.54 µM); in test [3] it was 0.5 µg/mL (≈ 1.07 µM); in test [4] it was at most 0.016 µg/mL; in test [5], 2 µg/mL (≈ 4.27 µM).
With `N#CCOc1cccc(-c2cccc(CNCC[C@H]3CN(c4ccc5c(n4)NC(=O)CO5)C(=O)O3)c2)c1` [Example 65, [3′-({2-[(S)-2-oxo-3-(3-oxo-3,4-dihydro-2H-pyrido[3,2-b][1,4]oxazin-6-yl)-oxazolidin-5-yl]-ethylamino}-methyl)-biphenyl-3-yloxy]-acetonitrile], the MIC in test [1] was 2 µg/mL (≈ 4 µM); in test [2] it was 16 µg/mL (≈ 32 µM); in test [3], 1 µg/mL (≈ 2 µM); in test [4], at most 0.063 µg/mL; in test [5], 1 µg/mL (≈ 2 µM).
As for `CCOc1cncc(-c2cccc(CNCC[C@H]3CN(c4ccc5c(n4)NC(=O)CO5)C(=O)O3)c2)c1` [Example 84, 6-((S)-5-{2-[3-(5-ethoxy-pyridin-3-yl)-benzylamino]-ethyl}-2-oxo-oxazolidin-3-yl)-4H-pyrido[3,2-b][1,4]oxazin-3-one], the MIC is 0.5 µg/mL (≈ 1.02 µM) in test [1]; 8 µg/mL (≈ 16.3 µM) in test [2]; 0.25 µg/mL (≈ 0.511 µM) in test [3]; at most 0.063 µg/mL in test [4]; 0.125 µg/mL (≈ 0.255 µM) in test [5].
Consider `N#Cc1cnnc(-c2cccc(CNCC[C@H]3CN(c4ccc5c(n4)NC(=O)CO5)C(=O)O3)c2)c1` [Example 80, 6-[3-({2-[(S)-2-oxo-3-(3-oxo-3,4-dihydro-2H-pyrido[3,2-b][1,4]oxazin-6-yl)-oxazolidin-5-yl]-ethylamino}-methyl)-phenyl]-pyridazine-4-carbonitrile], for which the MIC is 0.25 µg/mL (≈ 0.53 µM) in test [1]; over 8 µg/mL in test [2]; 0.5 µg/mL (≈ 1.06 µM) in test [3]; 0.031 µg/mL (≈ 0.0658 µM) in test [4]; 0.5 µg/mL (≈ 1.06 µM) in test [5].
On to `N#Cc1cccc(-c2cccc(CNCC[C@H]3CN(c4ccc5c(c4)NC(=O)CO5)C(=O)O3)c2)c1` [Example 82, 3′-({2-[(S)-2-oxo-3-(3-oxo-3,4-dihydro-2H-benzo[1,4]oxazin-6-yl)-oxazolidin-5-yl]-ethylamino}-methyl)-biphenyl-3-carbonitrile], for which the MIC in test [1] was 0.5 µg/mL (≈ 1.07 µM); in test [2], 4 µg/mL (≈ 8.54 µM); in test [3], 0.5 µg/mL (≈ 1.07 µM); in test [4], at most 0.016 µg/mL; in test [5], 0.5 µg/mL (≈ 1.07 µM).
For the compound `N#Cc1cc(O)nc(-c2cccc(CNCC[C@@H]3CN(c4ccc5c(c4)NC(=O)CS5)C(=O)O3)c2)c1` [Example 47, 2-hydroxy-6-[3-({2-[(R)-2-oxo-3-(3-oxo-3,4-dihydro-2H-benzo[1,4]thiazin-6-yl)-oxazolidin-5-yl]-ethylamino}-methyl)-phenyl]-isonicotinonitrile], the MIC in test [1] was 8 µg/mL (≈ 15.9 µM); in test [2], over 8 µg/mL; in test [3], 4 µg/mL (≈ 7.97 µM); in test [4], 0.25 µg/mL (≈ 0.498 µM); in test [5], 4 µg/mL (≈ 7.97 µM).
